From patent US8236820B2, “Anti-inflammatory compounds and uses thereof” (priority 2007, dated 2012)

Tested on: MDA-MB 231 human breast cancer cells
Experiment: Cell proliferation assay (BrdU incorporation) in MDA-MB231
Type: cell-based
Details: MDA-MB231, each compound at its IC50 concentration
Text: Cell proliferation assay: To determine cell proliferation, we measured the incorporation of 5-bromo-2′-deoxyuridine (BrdU) into newly synthesized cellular DNA, following the manufacture's instructions (BD Biosciences, San Jose, Calif.).
As summarized in Table 2 below, in MDA-MB231 cells, all six compounds, each used at its IC50 concentration, a) inhibited cell proliferation between 6% and 50% compared to controls; b) induced both early and late apoptosis, as well as necrosis; and c) inhibited the G1 to S cell cycle phase transition. In this Table, the values for proliferation are the percentage of the corresponding control values. Those for apoptosis and necrosis refer to the percentage of cells in each category with respect to the entire cell population, and are to be compared to the control (vehicle only-treated) cells (uppermost row).

For `CCOP(=O)(OCC)OCCCCOC(=O)CC1=C(C)/C(=C/c2ccc([S+](C)[O-])cc2)c2ccc(F)cc21` (stereo not shown) [Phospho-sulindac I], the “Proliferation (% control)” value was 52 % control.
